According to PubChem BioAssay (NCI):
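Test compounds were applied to cells in 96-well plates for 48 hours at 5 doses. TGI marks complete inhibition of growth.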

Experiments:
Assay in all cases: growth of human tumour cells (NCI), 48 h
786-0 renal = system: 786-0 renal
A498 renal = system: A498 renal
A549 NSCLC = system: A549 NSCLC
ACHN renal = system: ACHN renal
CAKI-1 renal = system: CAKI-1 renal
CCRF-CEM leukemia = system: CCRF-CEM leukemia
COLO 205 colon = system: COLO 205 colon
DLD-1 colon = system: DLD-1 colon
DMS 114 small cell lung = system: DMS 114 small cell lung
DMS 273 small cell lung = system: DMS 273 small cell lung
EKVX NSCLC = system: EKVX NSCLC
HCC-2998 colon = system: HCC-2998 colon
HCT-116 colon = system: HCT-116 colon
HCT-15 colon = system: HCT-15 colon
HL-60(TB) leukemia = system: HL-60(TB) leukemia
HOP-18 NSCLC = system: HOP-18 NSCLC
HOP-62 NSCLC = system: HOP-62 NSCLC
HOP-92 NSCLC = system: HOP-92 NSCLC
HT29 colon = system: HT29 colon
IGROV1 ovarian = system: IGROV1 ovarian
K-562 leukemia = system: K-562 leukemia
KM12 colon = system: KM12 colon
KM20L2 colon = system: KM20L2 colon
LOX IMVI melanoma = system: LOX IMVI melanoma
LXFL 529 NSCLC = system: LXFL 529 NSCLC
M14 melanoma = system: M14 melanoma
M19-MEL melanoma = system: M19-MEL melanoma
MALME-3M melanoma = system: MALME-3M melanoma
MOLT-4 leukemia = system: MOLT-4 leukemia
NCI-H226 lung = system: NCI-H226 lung
NCI-H23 lung = system: NCI-H23 lung
NCI-H460 lung = system: NCI-H460 lung
NCI-H522 lung = system: NCI-H522 lung
OVCAR-3 ovarian = system: OVCAR-3 ovarian
OVCAR-4 ovarian = system: OVCAR-4 ovarian
OVCAR-5 ovarian = system: OVCAR-5 ovarian
OVCAR-8 ovarian = system: OVCAR-8 ovarian
RXF 393 renal = system: RXF 393 renal
RXF-631 renal = system: RXF-631 renal
SF-268 CNS = system: SF-268 CNS
SF-295 CNS = system: SF-295 CNS
SF-539 CNS = system: SF-539 CNS
SK-MEL-2 melanoma = system: SK-MEL-2 melanoma
SK-MEL-28 melanoma = system: SK-MEL-28 melanoma
SK-MEL-5 melanoma = system: SK-MEL-5 melanoma
SK-OV-3 ovarian = system: SK-OV-3 ovarian
SN12C renal = system: SN12C renal
SNB-19 CNS = system: SNB-19 CNS
SNB-75 CNS = system: SNB-75 CNS
SNB-78 CNS = system: SNB-78 CNS
SR leukemia = system: SR leukemia
SW-620 colon = system: SW-620 colon
TK-10 renal = system: TK-10 renal
U251 CNS = system: U251 CNS
UACC-257 melanoma = system: UACC-257 melanoma
UACC-62 melanoma = system: UACC-62 melanoma
UO-31 renal = system: UO-31 renal
XF 498 CNS = system: XF 498 CNS
RPMI-8226 leukemia = system: RPMI-8226 leukemia

`O=C1NC(=O)C(CCC(=O)c2ccc3ccccc3c2)C(=O)N1` was tested, and the TGI (786-0 renal) was > 100 µM, the TGI (A498 renal) was > 100 µM and the TGI (A549 NSCLC) was > 100 µM. The TGI (ACHN renal) was > 100 µM, the TGI (CAKI-1 renal) was > 100 µM and the TGI (CCRF-CEM leukemia) was > 100 µM. For the same molecule, the TGI (COLO 205 colon) was > 100 µM, the TGI (DLD-1 colon) was > 100 µM and the TGI (DMS 114 small cell lung) was > 100 µM. For the same molecule, the TGI (DMS 273 small cell lung) was > 100 µM, the TGI (EKVX NSCLC) was > 100 µM and the TGI (HCC-2998 colon) was > 100 µM. For the same molecule, the TGI (HCT-116 colon) was > 100 µM, the TGI (HCT-15 colon) was > 100 µM and the TGI (HL-60(TB) leukemia) was > 100 µM. For the same molecule, the TGI (HOP-18 NSCLC) was > 100 µM, the TGI (HOP-62 NSCLC) was > 100 µM and the TGI (HOP-92 NSCLC) was > 100 µM. The TGI (HT29 colon) was > 100 µM, the TGI (IGROV1 ovarian) was > 100 µM and the TGI (K-562 leukemia) was > 100 µM. The TGI (KM12 colon) was > 100 µM, the TGI (KM20L2 colon) was > 100 µM and the TGI (LOX IMVI melanoma) was > 100 µM. The TGI (LXFL 529 NSCLC) was > 100 µM, the TGI (M14 melanoma) was > 100 µM and the TGI (M19-MEL melanoma) was > 100 µM. The TGI (MALME-3M melanoma) was > 100 µM, the TGI (MOLT-4 leukemia) was > 100 µM and the TGI (NCI-H226 lung) was > 100 µM. For the same molecule, the TGI (NCI-H23 lung) was > 100 µM, the TGI (NCI-H460 lung) was > 100 µM and the TGI (NCI-H522 lung) was 38.5 µM. For the same molecule, the TGI (OVCAR-3 ovarian) was > 100 µM, the TGI (OVCAR-4 ovarian) was > 100 µM and the TGI (OVCAR-5 ovarian) was > 100 µM. For the same molecule, the TGI (OVCAR-8 ovarian) was > 100 µM, the TGI (RXF 393 renal) was > 100 µM and the TGI (RXF-631 renal) was > 100 µM. The TGI (SF-268 CNS) was > 100 µM, the TGI (SF-295 CNS) was > 100 µM and the TGI (SF-539 CNS) was > 100 µM. For the same molecule, the TGI (SK-MEL-2 melanoma) was > 100 µM, the TGI (SK-MEL-28 melanoma) was > 100 µM and the TGI (SK-MEL-5 melanoma) was > 100 µM. For the same molecule, the TGI (SK-OV-3 ovarian) was > 100 µM, the TGI (SN12C renal) was > 100 µM and the TGI (SNB-19 CNS) was > 100 µM. The TGI (SNB-75 CNS) was > 100 µM, the TGI (SNB-78 CNS) was > 100 µM and the TGI (SR leukemia) was > 100 µM. For the same molecule, the TGI (SW-620 colon) was > 100 µM, the TGI (TK-10 renal) was > 100 µM and the TGI (U251 CNS) was > 100 µM. For the same molecule, the TGI (UACC-257 melanoma) was > 100 µM, the TGI (UACC-62 melanoma) was > 100 µM and the TGI (UO-31 renal) was > 100 µM. For the same molecule, the TGI (XF 498 CNS) was > 100 µM.
With `NC(=O)COC(=O)c1c(Cl)nc2sccn12` the TGI (786-0 renal) was 36 µM, the TGI (A498 renal) was > 100 µM and the TGI (A549 NSCLC) was > 100 µM. The TGI (ACHN renal) was > 100 µM, the TGI (CAKI-1 renal) was > 100 µM and the TGI (CCRF-CEM leukemia) was > 31.6 µM. The TGI (COLO 205 colon) was > 100 µM, the TGI (DLD-1 colon) was > 100 µM and the TGI (DMS 114 small cell lung) was > 83.8 µM. For the same molecule, the TGI (DMS 273 small cell lung) was > 100 µM, the TGI (EKVX NSCLC) was > 100 µM and the TGI (HCC-2998 colon) was > 100 µM. For the same molecule, the TGI (HCT-116 colon) was > 31.6 µM, the TGI (HCT-15 colon) was > 55.1 µM and the TGI (HL-60(TB) leukemia) was > 81.8 µM. The TGI (HOP-18 NSCLC) was > 100 µM, the TGI (HOP-62 NSCLC) was > 100 µM and the TGI (HOP-92 NSCLC) was > 100 µM. For the same molecule, the TGI (HT29 colon) was > 100 µM, the TGI (IGROV1 ovarian) was > 100 µM and the TGI (K-562 leukemia) was > 100 µM. For the same molecule, the TGI (KM12 colon) was > 100 µM, the TGI (KM20L2 colon) was > 100 µM and the TGI (LOX IMVI melanoma) was > 100 µM. The TGI (LXFL 529 NSCLC) was > 100 µM, the TGI (M14 melanoma) was > 100 µM and the TGI (M19-MEL melanoma) was > 100 µM. The TGI (MALME-3M melanoma) was > 100 µM, the TGI (MOLT-4 leukemia) was > 100 µM and the TGI (NCI-H226 lung) was > 100 µM. The TGI (NCI-H23 lung) was > 100 µM, the TGI (NCI-H460 lung) was > 100 µM and the TGI (NCI-H522 lung) was > 100 µM. The TGI (OVCAR-3 ovarian) was > 62.6 µM, the TGI (OVCAR-4 ovarian) was > 100 µM and the TGI (OVCAR-5 ovarian) was > 100 µM. The TGI (OVCAR-8 ovarian) was > 100 µM, the TGI (RPMI-8226 leukemia) was > 66.4 µM and the TGI (RXF-631 renal) was > 100 µM. For the same molecule, the TGI (SF-268 CNS) was > 100 µM, the TGI (SF-295 CNS) was > 100 µM and the TGI (SF-539 CNS) was > 100 µM. The TGI (SK-MEL-2 melanoma) was > 100 µM, the TGI (SK-MEL-28 melanoma) was > 100 µM and the TGI (SK-MEL-5 melanoma) was > 100 µM. The TGI (SK-OV-3 ovarian) was > 100 µM, the TGI (SN12C renal) was > 100 µM and the TGI (SNB-19 CNS) was > 100 µM. The TGI (SNB-75 CNS) was > 100 µM, the TGI (SNB-78 CNS) was > 100 µM and the TGI (SR leukemia) was 85.4 µM. For the same molecule, the TGI (SW-620 colon) was > 64.7 µM, the TGI (TK-10 renal) was > 100 µM and the TGI (U251 CNS) was > 100 µM. For the same molecule, the TGI (UACC-257 melanoma) was > 100 µM, the TGI (UACC-62 melanoma) was > 100 µM and the TGI (UO-31 renal) was > 100 µM. The TGI (XF 498 CNS) was > 100 µM.
